Experimental data reported in US9695155B2, “Herbicidal substituted pyrimidinyloxy benzene compounds” (E. I. DU PONT DE NEMOURS AND COMPANY, priority 2013, dated 2017).

What was measured:
[1] = system: rice; assay: Test B flooded paddy test; format: in vivo, Oryza sativa; conditions: Flood, 250 g ai/ha; 0 to 100 scale where 0 is no effect and 100 is complete control
Outline: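 Compound added straight to paddy water, with pots kept flooded 3 cm above soil, on plants grown to the 2-leaf stage. Visual scoring 0-100 (100 = complete control) against untreated controls after 13 to 15 greenhouse days.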

[2] = system: ragweed; assay: Test C postemergence; format: in vivo, Ambrosia elatior; conditions: for Plant response rating (0 to 100), Ragweed: postemergence; for Plant response rating, Ragweed: Postemergence, scale 0 to 100 (0 no effect, 100 complete control)
Outline: (§1)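 Visual ratings on a 0–100 scale (100 = complete control) were made versus untreated controls after 13–15 greenhouse days. Chemicals in a surfactant-containing non-phytotoxic solvent were applied either preemergence to seeds in loam–sand soil or postemergence to 1- to 4-leaf plants 2–18 cm tall.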

[3] = system: giant foxtail; assay: Test C postemergence; format: in vivo, Setaria faberii; conditions: for Plant response rating (0 to 100), Foxtail, Giant: postemergence; for Plant response rating, Foxtail, Giant: Postemergence, scale 0 to 100 (0 no effect, 100 complete control)
Outline: as §1

[4] = system: wheat, winter; assay: Test C preemergence; format: in vivo, Triticum aestivum; conditions: for Wheat plant response rating: preemergence, scale 0 (no effect) to 100 (complete control)
Outline: as §1

[5] = system: large (Lg) crabgrass; assay: Test C preemergence; format: in vivo, Digitaria sanguinalis; conditions: for Crabgrass, Large plant response rating: preemergence, scale 0 (no effect) to 100 (complete control)
Outline: as §1

[6] = system: blackgrass; assay: Test C postemergence; format: in vivo, Alopecurus myosuroides; conditions: for Plant response rating (0 to 100), Blackgrass: postemergence; for Plant response rating, Blackgrass: Postemergence, scale 0 to 100 (0 no effect, 100 complete control)
Outline: as §1

[7] = system: blackgrass; assay: Test C preemergence; format: in vivo, Alopecurus myosuroides; conditions: for Blackgrass plant response rating: preemergence, scale 0 (no effect) to 100 (complete control)
Outline: as §1

[8] = system: soybean; assay: Test C preemergence; format: in vivo, Glycine max; conditions: preemergence, scale 0 (no effect) to 100 (complete control)
Outline: as §1

[9] = system: oilseed rape; assay: Test C postemergence; format: in vivo, Brassica napus; conditions: for Plant response rating (0 to 100), Oilseed Rape: postemergence; for Plant response rating, Oilseed Rape: Postemergence, scale 0 to 100 (0 no effect, 100 complete control)
Outline: as §1

[10] = system: morningglory; assay: Test A postemergence; format: in vivo, Ipomoea spp.; conditions: 0 to 100 scale where 0 is no effect and 100 is complete control
Outline: (§2)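 Greenhouse pot test, loam/sand soil. Formulation: non-phytotoxic solvent mix plus surfactant. Pre: directed spray onto soil after sowing. Post: plants at 1–2 leaf, 2–10 cm. Rated visually vs untreated controls at ~10 d, 0 (no effect) to 100 (complete control).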

[11] = system: barnyardgrass; assay: Test C preemergence; format: in vivo, Echinochloa crus-galli; conditions: for Barnyardgrass plant response rating: preemergence, scale 0 (no effect) to 100 (complete control)
Outline: as §1

[12] = system: barnyardgrass; assay: Test A preemergence; format: in vivo, Echinochloa crus-galli
Outline: as §2

[13] = system: soybean; assay: Test C postemergence; format: in vivo, Glycine max; conditions: for Plant response rating (0 to 100), Soybean: postemergence; for Plant response rating, Soybean: Postemergence, scale 0 to 100 (0 no effect, 100 complete control)
Outline: as §1

[14] = system: wheat; assay: Test A postemergence; format: in vivo, Triticum aestivum; conditions: 0 to 100 scale where 0 is no effect and 100 is complete control
Outline: as §2

[15] = Preemergence, 31 g ai/ha, scale 0 to 100, 0 no effect, 100 complete control

N#Cc1cccc(Oc2ncc(F)cn2)c1-n1cc(Cl)cn1 [Compound 73]
Plant response rating, Rice [1]: 0
Plant response rating (0 to 100), Ragweed ([2]; 125 g ai/ha): 50
Plant response rating (0 to 100), Ragweed ([2]; 250 g ai/ha): 65
Plant response rating, Ragweed ([2]; 31 g ai/ha, 13 to 15 days): 30
Plant response rating, Ragweed ([2]; 62 g ai/ha): 35
Plant response rating (0 to 100), Foxtail, Giant ([3]; 125 g ai/ha): 10
Plant response rating (0 to 100), Foxtail, Giant ([3]; 250 g ai/ha): 30
Plant response rating, Foxtail, Giant ([3]; 31 g ai/ha, 13 to 15 days): 0
Plant response rating, Foxtail, Giant ([3]; 62 g ai/ha): 5
Wheat plant response rating ([4]; 62 g ai/ha): 0
Wheat plant response rating ([4]; 125 g ai/ha): 5
Wheat plant response rating ([4]; 250 g ai/ha): 85
Plant response rating, Wheat [4, 15]: 0
Crabgrass, Large plant response rating ([5]; 62 g ai/ha): 100
Crabgrass, Large plant response rating ([5]; 125 g ai/ha): 100
Crabgrass, Large plant response rating ([5]; 250 g ai/ha): 100
Plant response rating, Crabgrass, Large [5, 15]: 100
Plant response rating (0 to 100), Blackgrass ([6]; 125 g ai/ha): 5
Plant response rating (0 to 100), Blackgrass ([6]; 250 g ai/ha): 25
Plant response rating, Blackgrass ([6]; 31 g ai/ha, 13 to 15 days): 0
Plant response rating, Blackgrass ([6]; 62 g ai/ha): 0
Blackgrass plant response rating ([7]; 62 g ai/ha): 80
Blackgrass plant response rating ([7]; 125 g ai/ha): 90
Blackgrass plant response rating ([7]; 250 g ai/ha): 90
Plant response rating, Blackgrass [7, 15]: 0
Soybean plant response rating ([8]; 62 g ai/ha): 60
Soybean plant response rating ([8]; 125 g ai/ha): 75
Soybean plant response rating ([8]; 250 g ai/ha): 90
Plant response rating (0 to 100), Oilseed Rape ([9]; 125 g ai/ha): 60
Plant response rating (0 to 100), Oilseed Rape ([9]; 250 g ai/ha): 80
Plant response rating, Oilseed Rape ([9]; 31 g ai/ha, 13 to 15 days): 10
Plant response rating, Oilseed Rape ([9]; 62 g ai/ha): 30
Plant response rating, Morningglory ([10]; 125 g ai/ha): 90
Plant response rating, Morningglory ([10]; 500 g ai/ha): 100
Barnyardgrass plant response rating ([11]; 62 g ai/ha): 80
Barnyardgrass plant response rating ([11]; 125 g ai/ha): 100
Barnyardgrass plant response rating ([11]; 250 g ai/ha): 100
Plant response rating, Barnyardgrass [11, 15]: 60
Plant response rating, Barnyardgrass ([12]; 125 g ai/ha, 0 to 100 scale where 0 is no effect and 100 is complete control): 90
Barnyardgrass plant response rating ([12]; 500 g ai/ha, 0 to 100 scale, 0 no effect, 100 complete control, approx. 10 days): 100
Plant response rating (0 to 100), Soybean ([13]; 125 g ai/ha): 80
Plant response rating (0 to 100), Soybean ([13]; 250 g ai/ha): 90
Plant response rating, Soybean ([13]; 31 g ai/ha, 13 to 15 days): 40
Plant response rating, Soybean ([13]; 62 g ai/ha): 70
Plant response rating, Wheat ([14]; 125 g ai/ha): 20
Plant response rating, Wheat ([14]; 500 g ai/ha): 50
